# Data: patent US8796203B2, “Use of tight junction antagonists to treat inflammatory bowel disease” (Alba Therapeutics Corporation, priority 2006, dated 2014)
# Assays:
# Assay type in all cases: in vivo
# 129/Svev/IL-10KO mouse = experiment: Small intestinal permeability by lactulose mannitol test in IL-10 KO mouse; details: high dose AT-1001 (1 mg/ml in drinking water, ad libidum), FIGS. 1-4
# Method: (§1) The purpose of this study is to determine the ability of AT-1001, administered daily in drinking water to alter intestinal permeability (measured by absorption/excretion of lactulose and mannitol) and to inhibit the development of colitis in the 129/Svev/IL-10KO mouse.
# AT-1001 neat chemical will be administered ad libidum every day starting at day 1 to Group 3 at 0.1 mg/ml and Group 4 at 1 mg/ml in sterile water via the drinking water supply. Dosing of AT-1001 will be continued when the animals are in the metabolic cages for 22 hours. Probiotic conditioned medium will be given every morning to Group 2. The solution is prepared by dissolving 0.01 g in 10 ml of MRS medium and incubating it at 37° C. for 24 h. After incubation, the tube will be centrifuged 10 minutes at 10,000 rpm. The supernatant will be filtered through a 0.22 micron filter and diluted 1:10 with MRS medium. Animals will receive 30 μl of this dilution every morning. The conditioned media must be prepared fresh every morning.
# Each week, food and water will be removed 4 hours prior to gavage. […]
# During each intestinal permeability trial, all subjects will be gavaged with suc/lac/man/sucralose solution and placed in metabolic cages immediately after to enable urine collection. […] All sugars will be quantified by ion exchange HPLC. […]
# [1] = test system: 129/Svev/IL-10KO mouse colon; experiment: Colonic permeability and electrical resistance, Ussing chamber measurements, IL-10 KO mouse; details: at 8 weeks of age, AT-1001 in drinking water, versus untreated animals
# Method: as §1
# (§2) FIG. 5-10 show the results of analysis of disease in the colon. Disease in the colon was evaluated at both 8 and 17 week time points. The former with Ussing chamber measurements and the latter with histology, mucosal cytokine secretion, MPO and sucralose permeability.
# [2] = test system: 129/Svev/IL-10KO mouse colon; experiment: Colonic inflammation (histology, mucosal cytokine secretion, MPO) in IL-10 KO mouse; details: at 17 weeks; AT-1001 in drinking water
# Description: as §1
# Immediately upon expiration, stomachs, small intestines, and colons will be collected and weighed. Each tissue will be scored for macroscopic lesions to assess intestinal damage by the Study Pathologist. ELISAs will be performed on each tissue to measure the levels of MPO, IL-8, TNFα, and IFNγ. A section of the tissues will be fixed in formalin for HE histology. The day after the final intestinal permeability measures on day 77, all surviving animals will be euthanized and intestinal tissues collected and processed.
# as §2
substance,measurement,setting,value
AT-1001,increase in small intestinal permeability associated with development of disease,129/Svev/IL-10KO mouse,abrogated
same,colonic electrical resistance,[1],prevented the reduction in electrical resistance
same,colonic permeability to mannitol,[1],reduced colonic permeability to mannitol
same,"tissue markers of colonic inflammation (neutrophil infiltration/MPO, TNF and IFN secretion over 24 hours)",[2],reduced all tissue markers of colonic inflammation that were measured
